A short description of the data set: gradient 5% acetonitrile 3 min, to 50% in 2 min, to 85% in 15 min, held 3 min, 100 µL/min. As to conditions: column: Zorbax Extend-C18 2.1 x 50 mm; eluents: water / acetonitrile, 0.1% formic acid. The gist of the method: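 Values are retention times taken from adduct peaks that software picked and an analyst inspected. The pure standards were run as mixtures of ~100 molecules on HPLC linked to a quadrupole time-of-flight mass spectrometer, in positive and negative ionization mode. A Zorbax Extend-C18 column (2.1 × 50 mm, 1.8 μm) was used at 100 μL/min with water and acetonitrile, each including 0.1% formic acid.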
As to `CN(CC#N)C(=O)c1cc2c(Cl)ccc3c2n1CCO3`, the RP-LC retention time stood at 865 s.

`CC(NS(=O)(=O)c1cc(-c2nc(C(C)(C)C)cs2)cs1)c1ccccc1` (stereo not given) displayed an RP-LC retention time of 1240 s.

`CCC(=O)N1c2ccc(S(=O)(=O)CCC(=O)N3CCN(c4ccc(OC)cc4)CC3)cc2CC1C` (stereo not given) came in with an RP-LC retention time of 785 s.

`O=C(O)c1cnc(N2CCCCC2)nc1-c1ccccc1` returned an RP-LC retention time of 956 s.

As to `CCCC(C(=O)O)c1c(C)nc2ccc(Cl)cc2c1-c1ccccc1` (stereo not given), the RP-LC retention time worked out at 1010 s.

`COc1ccccc1CCc1nc(C2CC(=O)N(C3CCCCC3)C2)no1` (stereo not given) gave an RP-LC retention time of 989 s.

As to `COc1cccc(OCC(O)CN2CCN(Cc3ccccc3)CC2)c1` (stereo not given), the RP-LC retention time turned out to be 610 s.

As for `Cc1cccc(NC(=O)N2CCc3nc(-c4ccc(F)cc4)ncc3C2)c1C`, the RP-LC retention time amounted to 974 s.

Molecule `COc1cccc(C(O)CN2CCN(C3CCCCC3)CC2)c1` (stereo not given) came in with an RP-LC retention time of 548 s.

`CC(COc1ccc(C(C)C)cc1)NC(=O)c1cccs1` (stereo not given): the RP-LC retention time came out at 998 s.

As for `COc1ccc(-c2nnc3n2CCN(Cc2cnn(C)c2C)C3)cc1`, the RP-LC retention time turned out to be 583 s.

The molecule `CC(C)N1C(=O)C(C)(C(=O)NCc2ccccc2Cl)Oc2cccnc21` (stereo not given) had an RP-LC retention time of 974 s.

For the molecule `Cn1c(=O)c(-c2noc(C(=O)N3CCN(c4ccccn4)CC3)n2)nn(-c2ccccc2)c1=O`, the RP-LC retention time amounted to 637 s.

Molecule `Cc1nn(-c2ccc(-c3ccccc3)nn2)c(C)c1S(=O)(=O)NCc1ccc(F)cc1` yielded an RP-LC retention time of 988 s.

In turn, `Cc1ccc(NC(=O)Cn2c(-c3cnccn3)nc(C)c(C)c2=O)cc1F` yielded an RP-LC retention time of 793 s.

For `COC(=O)CC(=O)Nc1nnc(SCc2nnc(-c3ccccc3C)o2)s1`, the RP-LC retention time was 758 s.

`CCc1nc(-c2ccc(-c3noc(-c4ccncc4)n3)cc2)cs1` showed an RP-LC retention time of 1230 s.

In turn, `Cc1cc(N2CCN(C(=O)Nc3ccc4c(c3)OCCO4)CC2)nc(N2CCOCC2)n1` gave an RP-LC retention time of 609 s.

For the molecule `CCOc1ccc(S(=O)(=O)N2CCC(C(=O)Nc3ccc4c(c3)OCCO4)CC2)cc1`, the RP-LC retention time was 903 s.

As for `COCCn1c(SCc2c(F)cccc2Cl)nnc1-c1cn(C)nc1OC`, the RP-LC retention time was found to be 683 s.

In turn, `CC(=O)N(Cc1nn(C)c2c1CN(S(=O)(=O)Cc1ccccc1Cl)CC2)c1ccccc1` came in with an RP-LC retention time of 835 s.

The molecule `O=C(NC[C@H](O)CO)c1ccncc1Nc1ccc(I)cc1F` came in with an RP-LC retention time of 671 s.

Turning to `CCC(=O)N1CCc2cc(N3CC(C(=O)NC(C)c4ccccn4)CC3=O)ccc21` (stereo not given), the RP-LC retention time came out at 585 s.

Molecule `CCn1c(=O)c(C)nc2cc(-c3noc(C4CC(=O)N(c5ccc(C)c(C)c5)C4)n3)ccc21` (stereo not given) showed an RP-LC retention time of 954 s.

With `CCOc1ccc2nc(C(=O)NC(C)C)cn2n1`, the RP-LC retention time turned out to be 731 s.

As to `CCN1C(=O)C2(CCN(S(=O)(=O)c3ccc(C)c(C)c3)CC2)c2ccccc21`, the RP-LC retention time was 1130 s.

`O=C(c1ccc2c(c1)OCO2)N1CCN(c2nnc3ccccn23)CC1` registered an RP-LC retention time of 616 s.

With `CCOc1ccc(NC(=O)N2CCCC(C)(C(=O)NCc3ccccc3C)C2)cc1` (stereo not given), the RP-LC retention time was found to be 855 s.

`O=C(CCC1CCCCC1)Nc1cccc(-c2cn3cccnc3n2)c1` registered an RP-LC retention time of 823 s.

With `Cn1c(=O)n(C)c2cc(S(=O)(=O)NCC(=O)O)ccc21`, the RP-LC retention time worked out at 566 s.

Take `CCOc1ccccc1-c1noc(CN2N=NC3C(=O)N(c4ccc(OC)c(OC)c4)C(=O)C32)n1` (stereo not given): the RP-LC retention time was 868 s.

`CCCN1C(=O)COc2ccc(-c3csc(NC(=O)c4ccccc4Cl)n3)cc21` gave an RP-LC retention time of 1030 s.

In the case of `CCNc1cc(N2CCC(CCC(=O)NCC3CC3)CC2)ncn1`, the RP-LC retention time was found to be 588 s.

The molecule `CSc1ccc(CCNC(=O)Cn2c(=O)c3cccn3c3ccc(F)cc32)cc1` yielded an RP-LC retention time of 897 s.

Regarding `CCOC(=O)C1CCN(C(=O)CN2C(=O)C3CCCCN3c3ccc(C(=O)N(C)C)cc32)CC1` (stereo not given), the RP-LC retention time stood at 732 s.

`O=C(NC1CCCCC1)N1CCCC1c1nc(-c2cccc(F)c2)no1` (stereo not given) returned an RP-LC retention time of 984 s.

As for `Cc1ccc(-c2cc(C(=O)N3CCN(C4CCN(C)CC4)CC3)n(C)c2)cc1`, the RP-LC retention time is 590 s.

With `CC(C)NC(=O)CN1C(=O)C2CCCCN2c2ccc(S(=O)(=O)N3CCCC3)cc21` (stereo not given), the RP-LC retention time is 810 s.

The molecule `CCCCc1ccc(NC(=O)CSc2cc(N3CCN(c4ccc(OC)cc4)CC3)ncn2)cc1` displayed an RP-LC retention time of 1310 s.

`COCCn1cc2c3c(cccc31)CN(C(=O)Nc1cc(Cl)c(OC)cc1OC)CC2`: the RP-LC retention time was found to be 993 s.

For the molecule `CCC(C)C(=O)N1CCCN(C2=NS(=O)(=O)C(c3ccccc3)=C2C)CC1` (stereo not given), the RP-LC retention time amounted to 777 s.

`O=C(Nc1ccccc1Cl)N1CCc2nc[nH]c2C1` had an RP-LC retention time of 570 s.

Turning to `COC(=O)c1cc(OCC(=O)Nc2ccc(OC)c(Cl)c2)c2cc(OC)ccc2n1`, the RP-LC retention time turned out to be 867 s.

The molecule `Cc1cccc(OCC(=O)N2CCCC(c3n[nH]c(C4CC4)n3)C2)c1` (stereo not given) had an RP-LC retention time of 687 s.

For `CSc1ccccc1CN1CCC(CNC(=O)c2ccccc2Cl)CC1`, the RP-LC retention time worked out at 722 s.

Take `CCC(C)(C)NS(=O)(=O)c1cc(-c2nc(C(C)(C)C)cs2)cs1`: the RP-LC retention time came to 1300 s.

In the case of `CCOC(=O)c1nc(NCc2ccc(Cl)cc2)c2ccccc2n1`, the RP-LC retention time was determined as 868 s.

`CC(=O)N1CCC(N2C(=O)C3(CCCC3)C2c2scnc2C)CC1` (stereo not given) returned an RP-LC retention time of 664 s.

`CCCN(CCc1cccs1)C1CCc2c(O)cccc2C1` (stereo not given) gave an RP-LC retention time of 757 s.

The molecule `Cn1cc(C(=O)Nc2ccc(C(F)(F)F)cc2)c2cccnc21` had an RP-LC retention time of 909 s.

Molecule `O=C(c1csc(C(=O)N2CCCC2)n1)N1CCN(Cc2ccccc2)CC1` showed an RP-LC retention time of 603 s.

`O=C(Nc1nc(-c2ccc(F)cc2)cs1)c1c(-c2ccccc2)nc2n1CCS2(=O)=O`: the RP-LC retention time is 1000 s.

The molecule `CCSc1nnc(-c2nn(C)c3c2CN(S(=O)(=O)c2ccc(F)c(C)c2)CC3)n1CC` yielded an RP-LC retention time of 978 s.

For the molecule `CN1CCN(C(=O)C(=O)Nc2c3c(nn2-c2ccc(Cl)cc2)CSC3)CC1`, the RP-LC retention time was 634 s.

`CCS(=O)(=O)N1CC(=O)N(Cc2ccc(Cl)cc2)C(C)(C(=O)NC2CCCCCCC2)C1` (stereo not given) showed an RP-LC retention time of 1040 s.

`O=C(Cn1c(=O)cc(C(=O)N2CCCCC2)c2ccccc21)NC1CCCCC1` displayed an RP-LC retention time of 753 s.

The molecule `COc1ccc(-c2nc3cnccn3c2Nc2ccc(C(=O)NCc3ccco3)cc2)cc1` returned an RP-LC retention time of 710 s.

On to `O=C(Cn1nc2c(Oc3cccc(F)c3)nccn2c1=O)Nc1ccc(F)cc1F`, for which the RP-LC retention time was 835 s.

Molecule `O=C(NCc1cccs1)c1nc(-c2ccc(N3CCCC3)cc2)no1` showed an RP-LC retention time of 1110 s.

As to `O=C(C1=CN(c2cc(F)cc(F)c2)c2ccccc2S1(=O)=O)N1CCCC1`, the RP-LC retention time worked out at 786 s.

Regarding `COC(=O)C1=C(C)NC2=C(C(=O)c3ccccc32)C1c1ccccc1OC` (stereo not given), the RP-LC retention time stood at 901 s.

On to `Cn1cc(SCC(=O)N2CCCc3ccccc32)c2ccccc21`, for which the RP-LC retention time was 942 s.

As for `CCn1cnc2cc(-c3noc(CNC(=O)Cc4ccc(Cl)cc4)n3)ccc21`, the RP-LC retention time was 658 s.

The molecule `COc1ccc(-c2noc(C3CCCN3C(=O)C3CCC3)n2)cc1` (stereo not given) had an RP-LC retention time of 899 s.

Consider `COc1ccccc1-c1nc(-c2cccc(-c3ccnn3C)c2)no1`, for which the RP-LC retention time amounted to 1020 s.

`COCCNC(=O)C1COC2(CCCCC2)N1C(=O)c1cccc(F)c1` (stereo not given) yielded an RP-LC retention time of 719 s.

`CCN(CC)CCCNC(=O)CCc1c(-c2ccc(Br)cc2)nc2ccccn12` displayed an RP-LC retention time of 559 s.

`CCc1cc(=O)n(CC(=O)Nc2ccccc2CC)c(N2CCOCC2)n1` had an RP-LC retention time of 784 s.

As for `COCCCn1c(=O)c2ccccc2n(Cc2nc(-c3ccc(F)cc3)no2)c1=O`, the RP-LC retention time is 1010 s.

With `COc1ccc(OC)c(-c2nc(Nc3ccc(C)c(Cl)c3)sc2CC(=O)O)c1`, the RP-LC retention time amounted to 972 s.

Turning to `COc1ccc(NC(=O)NCCCn2c(C(F)(F)F)nc3cccnc32)cc1OC`, the RP-LC retention time came to 708 s.

The molecule `CCn1cc(-c2ccncc2)cc1C(=O)NCc1ccc(Br)cc1` showed an RP-LC retention time of 698 s.

In turn, `Cc1cc(C)n(-c2ccc(C(=O)NC3CCC(C)CC3)cn2)n1` (stereo not given) yielded an RP-LC retention time of 1010 s.

Consider `CN(C)CCC1c2ccc(Cl)cc2CCc2cccnc21` (stereo not given), for which the RP-LC retention time is 666 s.

Take `CN1CCN(C(=O)Cn2cccc2-c2nc(-c3ccc(Cl)cc3)cs2)CC1`: the RP-LC retention time amounted to 715 s.

Regarding `CC(=O)N1CCc2cc(N3CC(C(=O)NC(C)c4ccccn4)CC3=O)ccc21` (stereo not given), the RP-LC retention time turned out to be 904 s.

Turning to `COC(=O)c1c(NCc2ccco2)c2cccc(Cl)c2[nH]c1=O`, the RP-LC retention time is 740 s.

The molecule `Cc1ccc(C)c(-c2nc(-c3cccc(-c4ccnn4C)c3)no2)c1` returned an RP-LC retention time of 1110 s.

In turn, `Cc1noc(-c2cccc(OC3CN(C(=O)CN4C(=O)CCC4=O)C3)c2)n1` yielded an RP-LC retention time of 762 s.

As to `O=c1ccn(-c2ccc(Cl)cc2)nc1-c1nc(-c2ccc3c(c2)OCO3)no1`, the RP-LC retention time amounted to 913 s.

The values are drawn from the METLIN SMRT retention time set (Domingo-Almenara et al. 2019).
